Measurements reported in ChEMBL document CHEMBL3421538, “Structure-activity relationships and molecular studies of novel arylpiperazinylalkyl purine-2,4-diones and purine-2,4,8-triones with antidepressant and anxiolytic-like activity” (Eur J Med Chem, 2015).
Activity calls are given as the source filed them. No cut-off for these calls is given here.

How the values were obtained:
[1] = system: Mus musculus; assay: Antidepressant-like activity in Swiss mouse assessed as reduction in immobility time at 10 mg/kg, ip administered 60 mins before test; type: functional; set-up: scale not given: the % may be the effect or the level left; conditions: route intraperitoneal
[2] = target: T1, D(2) dopamine receptor (Homo sapiens, UniProt P14416); assay: Agonist activity at human D2L receptor expressed in HEK293 cells assessed as stimulation of cAMP levels at 0.1 uM relative to dopamine; type: functional, cell-based
[3] = target: T1, D(2) dopamine receptor; assay: Displacement of [3H]N-methylspiperone from human recombinant dopamine D2 receptor expressed in CHOK1 cells incubated for 60 mins by microbeta plate reader based method; type: cell-based, CHO-K1
[4] = target: D(3) dopamine receptor (Homo sapiens) (UniProt P35462); assay: Displacement of [3H]N-methylspiperone from dopamine D3 receptor (unknown origin) assessed as total radioligand binding at 1 uM incubated for 60 mins by microbeta plate reader based method
[5] = target: T2, 5-hydroxytryptamine receptor 6 (Homo sapiens, UniProt P50406); assay: Displacement of [3H]LSD from human recombinant 5-HT6 receptor expressed in HEK293 cells assessed as total radioligand binding at 1 uM incubated for 60 mins by microbeta plate reader based method; type: cell-based
[6] = system: Mus musculus; assay: Toxicity in Swiss mouse assessed as spontaneous locomotor activity at 2.5 to 20 mg/kg, ip measured during 2 to 6 mins; type: organism-based; set-up: route intraperitoneal; conditions: in vivo
[7] = target: T3, 5-hydroxytryptamine receptor 7 (Homo sapiens, UniProt P34969); assay: Agonist activity at human 5-HT7 receptor expressed in HEK293 cells assessed as stimulation of cAMP levels at 0.1 uM relative to 5HT; type: functional, cell-based
[8] = target: T1, D(2) dopamine receptor; assay: Antagonist activity against human dopamine D2L receptor expressed in HEK293 cells assessed as inhibition of […]-induced cAMP levels at 1 uM; type: functional, cell-based
[9] = target: T1, D(2) dopamine receptor; assay: Antagonist activity against human dopamine D2L receptor expressed in HEK293 cells assessed as inhibition of […]-induced cAMP levels at 0.1 uM; type: functional, cell-based
[10] = system: Mus musculus; assay: Antidepressant-like activity in Swiss mouse assessed as reduction in immobility time at 2.5 to 20 mg/kg, ip administered 60 mins before test; type: functional, organism-based
[11] = target: T4, 5-hydroxytryptamine receptor 1A (Homo sapiens) (UniProt P08908); assay: Antagonist activity against human 5-HT1A receptor expressed in HEK293 cells assessed as inhibition of […]-induced cAMP levels at 1 uM; type: functional, cell-based
T4 sequence (whole entry): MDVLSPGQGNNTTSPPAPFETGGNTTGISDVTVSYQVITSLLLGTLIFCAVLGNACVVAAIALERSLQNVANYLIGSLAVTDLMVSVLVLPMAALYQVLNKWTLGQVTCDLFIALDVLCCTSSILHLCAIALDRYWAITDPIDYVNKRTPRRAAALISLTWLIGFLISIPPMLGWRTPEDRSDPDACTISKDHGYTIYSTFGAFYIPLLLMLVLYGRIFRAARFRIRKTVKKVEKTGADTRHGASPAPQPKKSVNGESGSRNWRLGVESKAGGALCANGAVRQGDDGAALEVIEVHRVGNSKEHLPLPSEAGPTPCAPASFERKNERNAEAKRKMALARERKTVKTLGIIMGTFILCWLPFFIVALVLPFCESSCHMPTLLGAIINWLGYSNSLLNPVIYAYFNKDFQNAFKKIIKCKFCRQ

[12] = target: T1, D(2) dopamine receptor; assay: Agonist activity at human D2L receptor expressed in HEK293 cells assessed as stimulation of cAMP levels at 1 uM relative to dopamine; type: functional, cell-based
[13] = target: T5, 5-hydroxytryptamine receptor 1A (Rattus norvegicus, UniProt P19327); assay: Displacement of [3H]8-OH-DPAT from rat hippocampus 5-HT1A receptor incubated for 20 mins by microbeta plate reader based method
T5 sequence (P19327 whole entry): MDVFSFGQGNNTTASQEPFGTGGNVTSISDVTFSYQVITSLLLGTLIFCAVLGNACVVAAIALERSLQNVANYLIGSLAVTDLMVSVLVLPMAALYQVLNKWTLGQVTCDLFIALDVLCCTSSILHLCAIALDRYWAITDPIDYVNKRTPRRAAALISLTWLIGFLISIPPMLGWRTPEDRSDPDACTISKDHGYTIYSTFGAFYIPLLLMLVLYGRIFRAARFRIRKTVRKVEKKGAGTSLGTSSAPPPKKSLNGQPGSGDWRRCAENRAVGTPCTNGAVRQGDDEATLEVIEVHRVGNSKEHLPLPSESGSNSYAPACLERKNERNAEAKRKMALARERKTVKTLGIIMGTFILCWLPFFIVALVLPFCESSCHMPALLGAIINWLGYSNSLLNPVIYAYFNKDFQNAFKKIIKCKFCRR

[14] = target: T3, 5-hydroxytryptamine receptor 7; assay: Antagonist activity against human 5-HT7 receptor expressed in HEK293 cells assessed as inhibition of 5-HT-induced cAMP levels at 0.1 uM; type: functional, cell-based
[15] = Selectivity index, ratio of Ki for rat hippocampus 5-HT1A receptor to Ki for human recombinant 5-HT7 receptor
[16] = target: T3, 5-hydroxytryptamine receptor 7; assay: Displacement of [3H]LSD from human recombinant 5-HT7 receptor expressed in CHOK1 cells incubated for 60 mins by microbeta plate reader based method; type: cell-based, CHO-K1
[17] = target: T6, 5-hydroxytryptamine receptor 1A (Rattus norvegicus) (UniProt P19327); assay: Displacement of [3H]8-OH-DPAT from rat hippocampus 5-HT1A receptor assessed as total radioligand binding at 1.66 x 10^-7 M incubated for 20 mins by microbeta plate reader based method
T6 sequence (whole entry): T5 sequence (P19327 whole entry)

[18] = target: T4, 5-hydroxytryptamine receptor 1A (Homo sapiens); assay: Agonist activity at human 5-HT1A receptor expressed in HEK293 cells assessed as stimulation of cAMP levels at 0.1 uM relative to 8-OH-DPAT; type: functional, cell-based
[19] = target: D(3) dopamine receptor (Homo sapiens) (UniProt P35462); assay: Displacement of [3H]N-methylspiperone from dopamine D3 receptor (unknown origin) assessed as total radioligand binding at 1.66 x 10^-7 M incubated for 60 mins by microbeta plate reader based method
[20] = target: T3, 5-hydroxytryptamine receptor 7; assay: Agonist activity at human 5-HT7 receptor expressed in HEK293 cells assessed as stimulation of cAMP levels at 1 uM relative to 5HT; type: functional, cell-based
[21] = target: T3, 5-hydroxytryptamine receptor 7; assay: Antagonist activity against human 5-HT7 receptor expressed in HEK293 cells assessed as inhibition of 5-HT-induced cAMP levels at 1 uM; type: functional, cell-based
[22] = target: T4, 5-hydroxytryptamine receptor 1A (Homo sapiens); assay: Agonist activity at human 5-HT1A receptor expressed in HEK293 cells assessed as stimulation of cAMP levels at 1 uM relative to 8-OH-DPAT; type: functional, cell-based
[23] = target: T6, 5-hydroxytryptamine receptor 1A (Rattus norvegicus); assay: Displacement of [3H]8-OH-DPAT from rat hippocampus 5-HT1A receptor assessed as total radioligand binding at 1 uM incubated for 20 mins by microbeta plate reader based method
[24] = target: T2, 5-hydroxytryptamine receptor 6; assay: Displacement of [3H]LSD from human recombinant 5-HT6 receptor expressed in HEK293 cells assessed as total radioligand binding at 1.66 x 10^-7 M incubated for 60 mins by microbeta plate reader based method; type: cell-based
[25] = target: T4, 5-hydroxytryptamine receptor 1A (Homo sapiens); assay: Antagonist activity against human 5-HT1A receptor expressed in HEK293 cells assessed as inhibition of […]-induced cAMP levels at 0.1 uM; type: functional, cell-based
[26] = system: Mus musculus; assay: Anxiolytic-like activity in Swiss mouse assessed as increase in number of punished crossings measured during 60 seconds period at 5 to 20 mg/kg, ip by four-plate test; type: functional, organism-based
[27] = system: Mus musculus; assay: Anxiolytic-like activity in Swiss mouse assessed as increase in number of punished crossings measured during 60 seconds period at 5 mg/kg, ip by four-plate test; type: functional; conditions: route intraperitoneal
[28] = system: Mus musculus; assay: Antidepressant-like activity in Swiss mouse assessed as reduction in immobility time at 1.25 to 5 mg/kg, ip administered 60 mins before test; type: functional, organism-based
[29] = system: Mus musculus; assay: Anxiolytic-like activity in Swiss mouse assessed as increase in number of punished crossings measured during 60 seconds period at 2.5 to 10 mg/kg, ip by four-plate test; type: functional, organism-based
[30] = system: Mus musculus; assay: Toxicity in Swiss mouse assessed as spontaneous locomotor activity at 2.5 to 10 mg/kg, ip; type: organism-based; set-up: dose 2.5-10 mg/kg, route intraperitoneal; conditions: in vivo
[31] = system: Mus musculus; assay: Anxiolytic-like activity in Swiss mouse assessed as increase in number of punished crossings measured during 60 seconds period at 25 mg/kg, ip by four-plate test; type: functional; conditions: route intraperitoneal
[32] = system: Mus musculus; assay: Antidepressant-like activity in Swiss mouse assessed as reduction in immobility time at 2.5 to 10 mg/kg, ip administered 60 mins before test; type: functional, organism-based
[33] = system: Mus musculus; assay: Antidepressant-like activity in Swiss mouse assessed as reduction in immobility time at 5 mg/kg, ip administered 60 mins before test; type: functional; set-up: scale not given: the % may be the effect or the level left; conditions: route intraperitoneal
[34] = system: Mus musculus; assay: Toxicity in Swiss mouse assessed as spontaneous locomotor activity at 2.5 to 10 mg/kg, ip measured during 2 to 6 mins; type: organism-based; set-up: route intraperitoneal; conditions: in vivo
[35] = target: T2, 5-hydroxytryptamine receptor 6; assay: Displacement of [3H]LSD from human recombinant 5-HT6 receptor expressed in HEK293 cells incubated for 60 mins by microbeta plate reader based method; type: cell-based
[36] = system: Mus musculus; assay: Anxiolytic-like activity in Swiss mouse assessed as increase in number of punished crossings measured during 60 seconds period at 1.25 to 5 mg/kg, ip by four-plate test; type: functional, organism-based
[37] = system: Mus musculus; assay: Antidepressant-like activity in ip dosed Swiss mouse assessed as reduction in immobility time administered 60 mins before test; type: functional; conditions: read-out: MED
[38] = system: Mus musculus; assay: Antidepressant-like activity in Swiss mouse assessed as reduction in immobility time at 1.25 mg/kg, ip administered 60 mins before test; type: functional; set-up: scale not given: the % may be the effect or the level left; conditions: route intraperitoneal
[39] = system: Mus musculus; assay: Antidepressant-like activity in Swiss mouse assessed as reduction in immobility time at 0.625 to 5 mg/kg, ip administered 60 mins before test; type: functional, organism-based
[40] = system: Mus musculus; assay: Toxicity in Swiss mouse assessed as spontaneous locomotor activity at 0.625 to 5 mg/kg, ip measured during 2 to 6 mins; type: organism-based; set-up: route intraperitoneal; conditions: in vivo
[41] = system: Mus musculus; assay: Potency index, ratio of MED for imipramine to MED for compound for antidepressant-like activity in ip dosed Swiss mouse; type: functional

T3 sequence (P34969 whole entry): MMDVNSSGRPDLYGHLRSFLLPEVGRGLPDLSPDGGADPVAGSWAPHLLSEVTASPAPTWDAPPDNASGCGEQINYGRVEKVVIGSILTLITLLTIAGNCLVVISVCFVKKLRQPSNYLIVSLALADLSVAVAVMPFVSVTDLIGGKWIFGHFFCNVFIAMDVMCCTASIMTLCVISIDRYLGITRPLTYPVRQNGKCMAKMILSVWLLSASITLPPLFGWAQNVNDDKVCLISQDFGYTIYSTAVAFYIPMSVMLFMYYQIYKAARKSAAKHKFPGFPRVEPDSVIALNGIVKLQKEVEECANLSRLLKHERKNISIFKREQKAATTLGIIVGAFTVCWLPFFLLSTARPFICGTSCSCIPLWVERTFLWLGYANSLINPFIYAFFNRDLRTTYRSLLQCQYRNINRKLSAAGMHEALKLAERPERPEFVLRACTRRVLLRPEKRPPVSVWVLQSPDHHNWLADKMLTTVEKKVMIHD
T2 sequence (P50406 whole entry): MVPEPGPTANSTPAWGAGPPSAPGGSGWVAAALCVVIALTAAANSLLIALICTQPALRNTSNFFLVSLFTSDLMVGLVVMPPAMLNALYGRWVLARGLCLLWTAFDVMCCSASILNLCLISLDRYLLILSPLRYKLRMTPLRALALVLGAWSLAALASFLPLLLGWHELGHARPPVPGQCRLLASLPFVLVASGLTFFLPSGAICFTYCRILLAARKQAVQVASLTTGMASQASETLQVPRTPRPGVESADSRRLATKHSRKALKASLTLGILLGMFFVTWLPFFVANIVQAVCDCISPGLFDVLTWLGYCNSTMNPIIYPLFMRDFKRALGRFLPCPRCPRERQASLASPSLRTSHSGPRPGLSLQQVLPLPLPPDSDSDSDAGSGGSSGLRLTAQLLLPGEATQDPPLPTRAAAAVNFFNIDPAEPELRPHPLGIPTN
T1 sequence (P14416 whole entry): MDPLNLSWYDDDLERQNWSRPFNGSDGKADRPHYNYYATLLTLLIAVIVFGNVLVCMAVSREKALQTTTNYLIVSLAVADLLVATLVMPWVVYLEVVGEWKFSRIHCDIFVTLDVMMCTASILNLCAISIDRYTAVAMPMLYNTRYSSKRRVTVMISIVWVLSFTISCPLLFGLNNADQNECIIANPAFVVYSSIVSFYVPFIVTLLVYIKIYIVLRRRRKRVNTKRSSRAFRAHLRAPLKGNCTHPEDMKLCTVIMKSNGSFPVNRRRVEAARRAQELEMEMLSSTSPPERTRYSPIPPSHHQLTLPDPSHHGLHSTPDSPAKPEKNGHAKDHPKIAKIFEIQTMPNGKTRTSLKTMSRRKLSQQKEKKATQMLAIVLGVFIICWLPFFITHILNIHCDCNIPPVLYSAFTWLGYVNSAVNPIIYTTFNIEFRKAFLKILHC
D(3) dopamine receptor (Homo sapiens), sequence (P35462 whole entry): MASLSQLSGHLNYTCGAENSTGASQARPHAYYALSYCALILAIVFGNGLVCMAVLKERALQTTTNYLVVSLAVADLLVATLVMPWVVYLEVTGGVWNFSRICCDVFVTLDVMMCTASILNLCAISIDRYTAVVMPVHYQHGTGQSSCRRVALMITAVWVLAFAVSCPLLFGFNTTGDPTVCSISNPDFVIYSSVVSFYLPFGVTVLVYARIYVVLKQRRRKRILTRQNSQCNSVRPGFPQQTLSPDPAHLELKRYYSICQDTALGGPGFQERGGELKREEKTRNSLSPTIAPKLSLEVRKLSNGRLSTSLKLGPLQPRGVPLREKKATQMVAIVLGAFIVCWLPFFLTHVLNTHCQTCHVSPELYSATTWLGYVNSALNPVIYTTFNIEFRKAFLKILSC

Structure (SMILES)	Activity [2]	Ki [3]	Activity [4]	Activity [5]	Activity [7]	inhibition [8]	inhibition [9]	inhibition [11]	Activity [12]	Ki [13]	inhibition [14]	Ratio Ki [15]	Ki [16]	Activity [17]	Activity [18]	Activity [19]	Activity [20]	inhibition [21]	Activity [22]	inhibition [25]	also measured
Cn1c(=O)c2c(nc3n(CCCCN4CCN(c5ccccc5O)CC4)c(-c4ccccc4)cn23)n(C)c1=O	19.2%	4 nM	39%	37%	4.5%	77.8%	45%	104%	28%	6 nM	7.7%	0.2	30 nM	42%	23.4%	81%	-2.2%	64.3%	37.4%	82.4%	Activity [1]: 17%; Activity [6]: Non-toxic; Activity [10]: Active; Activity [23]: 7%; Activity [24]: 69%; Activity [26]: inactive
Cn1c(=O)c2c(nc3n(CCCCCN4CCN(c5ccccc5O)CC4)c(-c4ccccc4)cn23)n(C)c1=O	12.3%	24 nM	39%	60%	5.1%	71.2%	12.2%	91.8%	7.7%	9 nM	11%	0.2	43 nM	47%	22.9%	81%	5.3%	58.9%	32.5%	68.3%	Activity [27]: 90%; Activity [28]: inactive; Activity [29]: Active; Activity [30]: Non-toxic; Activity [23]: 9%; Activity [24]: 87%
Cc1cn2c3c(=O)n(C)c(=O)n(C)c3nc2n1CCCCCN1CCN(c2ccc(Cl)c(Cl)c2)CC1	0.8%	59 nM	–	–	–	55.9%	20.9%	87.6%	10%	22 nM	–	0.19	111 nM	–	2.3%	–	–	–	18.7%	92.9%	Activity [31]: 124%; Activity [29]: Active; Activity [32]: Active; Activity [33]: 25%; Activity [30]: Non-toxic; Activity [34]: Non-toxic; Ki [35]: 405 nM
Cn1c(=O)c2c(nc3n(CCCCCN4CCN(c5ccc(Cl)cc5)CC4)c(-c4ccccc4)cn23)n(C)c1=O	3.1%	9 nM	–	–	1.9%	75.6%	16.5%	34.7%	7.7%	93 nM	-8.4%	0.7	122 nM	–	-7%	–	9.1%	22.1%	2.3%	71.8%	Activity [36]: inactive; minimal effective dose [37]: 1.25 mg/kg; Activity [38]: 40%; Activity [39]: Active; Activity [40]: Non-toxic; Ratio [41]: 4; Ki [35]: 45 nM
